Measurements published in paper PMC4872164, “Therapeutic Blockade of Immune Complex-Mediated Glomerulonephritis by Highly Selective Inhibition of Bruton’s Tyrosine Kinase” (Scientific Reports, 2016).
pIC50: −log10 of the molar value.

Target: Bruton's tyrosine kinase (BTK) (Homo sapiens, UniProt Q06187)
Test: TR-FRET LanthaScreen binding assay (affinity, kinact/Ki […] ^-1 s^-1); BTK enzyme IC50; co-crystallization and mass spectrometry (not shown)
Format: biochemical

Sequence of Bruton's tyrosine kinase (BTK) (Q06187 2-659): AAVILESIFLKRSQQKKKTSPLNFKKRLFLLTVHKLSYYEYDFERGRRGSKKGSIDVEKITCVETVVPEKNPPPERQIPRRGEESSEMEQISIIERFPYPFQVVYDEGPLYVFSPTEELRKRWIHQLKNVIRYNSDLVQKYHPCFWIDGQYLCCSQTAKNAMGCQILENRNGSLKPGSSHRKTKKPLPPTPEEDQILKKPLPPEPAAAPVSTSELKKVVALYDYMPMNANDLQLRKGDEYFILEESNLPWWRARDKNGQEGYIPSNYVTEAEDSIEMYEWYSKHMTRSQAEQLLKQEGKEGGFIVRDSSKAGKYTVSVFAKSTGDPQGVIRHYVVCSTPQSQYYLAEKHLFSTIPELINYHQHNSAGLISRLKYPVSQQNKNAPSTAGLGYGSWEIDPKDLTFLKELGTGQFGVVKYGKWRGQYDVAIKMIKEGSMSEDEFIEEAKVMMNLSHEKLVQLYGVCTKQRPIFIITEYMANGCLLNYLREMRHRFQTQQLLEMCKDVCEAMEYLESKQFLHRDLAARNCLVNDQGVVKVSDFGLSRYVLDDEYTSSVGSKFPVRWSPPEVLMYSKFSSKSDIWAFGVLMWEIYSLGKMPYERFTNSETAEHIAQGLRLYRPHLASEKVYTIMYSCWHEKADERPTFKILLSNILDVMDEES

For BI-BTK-1, the pIC50 was 9.05.
